Experimental findings from ChEMBL document CHEMBL5120883, “The Dawn of Allosteric BCR-ABL1 Drugs: From a Phenotypic Screening Hit to an Approved Drug” (2022) are described below.

This assay relates to BaF3. The experiment in a line: Antiproliferative activity against mouse BaF3 cells expressing Bcr-Abl assessed as cell growth inhibition. The format is functional.
For `FC(F)(F)c1ccc(Nc2cc(NCCN3CCOCC3)ncn2)cc1`, the 50% growth inhibitory concentration (GI50) came out at 920 nM.
With `NS(=O)(=O)c1ccc(-c2cc(Nc3ccc(OC(F)(F)F)cc3)ncn2)cc1`, the GI50 was determined as 120 nM.
`FC(F)(F)Oc1ccc(Nc2cc(-c3ccc4[nH]ccc4c3)ncn2)cc1`: the GI50 came out at 290 nM.
As for `FC(F)(F)Oc1ccc(Nc2cc(-c3cn[nH]c3)ncn2)cc1`, the figure is 90 nM; as for `FC(F)(F)Oc1ccc(Nc2cc(NCCN3CCOCC3)ncn2)cc1`, 720 nM; as for `FC(F)(F)Oc1cccc(Nc2cc(NCCN3CCOCC3)ncn2)c1`, 720 nM.
